Measurements reported in ChEMBL document CHEMBL1127552, “Approaches toward selective inhibition of nitric oxide synthase” (J Med Chem, 1994).
pIC50: −log10 of the molar value.

Tests used:
[1] = biological target: T1, Nitric oxide synthase, inducible (Mus musculus, UniProt P29477); test: Compound was tested for its inhibitory activity against macrophage NO2- synthesis
T1 sequence (P29477 whole entry): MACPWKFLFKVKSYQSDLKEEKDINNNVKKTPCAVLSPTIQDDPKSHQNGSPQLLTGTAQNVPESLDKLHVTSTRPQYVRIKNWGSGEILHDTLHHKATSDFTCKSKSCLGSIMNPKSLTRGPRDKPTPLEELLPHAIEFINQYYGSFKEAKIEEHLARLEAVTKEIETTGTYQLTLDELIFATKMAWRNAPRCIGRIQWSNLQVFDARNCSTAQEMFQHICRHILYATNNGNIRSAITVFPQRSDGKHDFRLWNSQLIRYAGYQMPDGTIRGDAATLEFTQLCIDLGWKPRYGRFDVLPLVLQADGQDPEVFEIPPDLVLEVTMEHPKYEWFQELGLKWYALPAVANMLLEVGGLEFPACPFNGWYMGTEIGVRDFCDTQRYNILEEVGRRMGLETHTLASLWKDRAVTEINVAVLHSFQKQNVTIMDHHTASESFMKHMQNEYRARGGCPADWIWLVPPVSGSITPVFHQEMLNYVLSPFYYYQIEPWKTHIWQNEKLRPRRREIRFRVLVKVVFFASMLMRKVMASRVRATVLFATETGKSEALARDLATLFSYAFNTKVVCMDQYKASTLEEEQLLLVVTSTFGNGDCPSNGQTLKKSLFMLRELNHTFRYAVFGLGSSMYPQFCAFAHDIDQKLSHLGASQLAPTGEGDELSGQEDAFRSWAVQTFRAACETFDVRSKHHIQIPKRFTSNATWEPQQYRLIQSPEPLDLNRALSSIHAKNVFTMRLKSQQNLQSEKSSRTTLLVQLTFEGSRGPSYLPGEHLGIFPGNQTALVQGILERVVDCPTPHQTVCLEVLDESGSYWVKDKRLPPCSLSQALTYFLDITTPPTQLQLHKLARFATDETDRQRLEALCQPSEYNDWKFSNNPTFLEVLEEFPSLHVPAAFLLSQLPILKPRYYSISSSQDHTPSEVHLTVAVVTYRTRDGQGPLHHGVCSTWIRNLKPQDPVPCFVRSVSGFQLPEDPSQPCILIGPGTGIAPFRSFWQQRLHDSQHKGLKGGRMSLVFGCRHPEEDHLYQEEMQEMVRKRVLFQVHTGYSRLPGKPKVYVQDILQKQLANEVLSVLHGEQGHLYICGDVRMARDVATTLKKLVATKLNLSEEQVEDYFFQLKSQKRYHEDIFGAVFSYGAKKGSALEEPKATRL

Nitric oxide synthase 3 = biological target: T2, Nitric oxide synthase 3 (Bos taurus, UniProt P29473); test: Compound was tested for its inhibitory activity against endothelial NO2- synthesis
T2 sequence (P29473 whole entry): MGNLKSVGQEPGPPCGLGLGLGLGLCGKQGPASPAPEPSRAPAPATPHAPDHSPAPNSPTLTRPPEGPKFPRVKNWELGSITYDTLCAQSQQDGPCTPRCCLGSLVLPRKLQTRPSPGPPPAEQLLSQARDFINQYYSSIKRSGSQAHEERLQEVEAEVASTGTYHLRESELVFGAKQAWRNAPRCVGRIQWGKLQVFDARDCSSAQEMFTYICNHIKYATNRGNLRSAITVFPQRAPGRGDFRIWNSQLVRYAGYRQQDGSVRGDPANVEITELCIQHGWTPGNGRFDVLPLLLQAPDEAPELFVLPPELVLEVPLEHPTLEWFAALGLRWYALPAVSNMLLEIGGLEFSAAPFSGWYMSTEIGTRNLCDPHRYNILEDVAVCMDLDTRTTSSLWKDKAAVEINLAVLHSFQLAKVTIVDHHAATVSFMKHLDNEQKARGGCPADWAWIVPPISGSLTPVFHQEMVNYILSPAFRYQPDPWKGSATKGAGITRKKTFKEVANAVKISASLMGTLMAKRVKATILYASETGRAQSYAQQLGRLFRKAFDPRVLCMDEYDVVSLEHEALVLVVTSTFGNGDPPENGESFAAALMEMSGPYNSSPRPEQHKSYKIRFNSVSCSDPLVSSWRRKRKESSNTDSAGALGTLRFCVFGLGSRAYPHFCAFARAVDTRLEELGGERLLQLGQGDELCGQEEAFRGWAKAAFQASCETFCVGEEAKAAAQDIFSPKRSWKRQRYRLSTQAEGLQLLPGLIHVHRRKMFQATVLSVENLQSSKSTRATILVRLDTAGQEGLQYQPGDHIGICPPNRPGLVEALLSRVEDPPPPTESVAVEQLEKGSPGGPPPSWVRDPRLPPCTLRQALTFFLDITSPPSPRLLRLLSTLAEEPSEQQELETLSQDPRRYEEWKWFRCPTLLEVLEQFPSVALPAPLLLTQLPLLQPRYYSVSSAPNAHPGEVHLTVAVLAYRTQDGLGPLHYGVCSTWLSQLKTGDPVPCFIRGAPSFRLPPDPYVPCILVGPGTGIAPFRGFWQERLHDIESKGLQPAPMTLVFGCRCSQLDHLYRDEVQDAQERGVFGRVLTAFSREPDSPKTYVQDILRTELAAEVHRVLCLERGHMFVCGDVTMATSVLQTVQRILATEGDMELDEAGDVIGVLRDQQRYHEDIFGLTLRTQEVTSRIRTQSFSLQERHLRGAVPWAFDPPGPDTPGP

SMILES	pIC50 [1]	pIC50 (Nitric oxide synthase 3)
CNC(N)NCCCC(N)C(=O)O (configuration not stated)	4.22	–
COC(=O)[C@@H](N)CCCNC(=N)N[N+](=O)[O-] [L-NAME]	–	4.00
